Results on 5 compounds are retold here after ChEMBL document CHEMBL1154224, “Spiropiperidine CCR5 antagonists” (Bioorg Med Chem Lett, 2009).

The subject of data set [1] is Human immunodeficiency virus 1. Kind of data set: Antiviral activity against recombinant HIV1 virus infected in human JC53BL cells after 3 days. In kind it is functional, organism-based. As to conditions: Human immunodeficiency virus 1, JC53BL, 72 h.
Data set [2] has as its system Liver microsomes. Kind of data set: (§1) Intrinsic clearance in human liver microsomes assessed per mg of protein. Type of data set: ADME, Microsome. Particulars: microsomes.
Data set [3] has as its target C-C chemokine receptor type 5 (Homo sapiens, UniProt P51681). Kind of data set: Displacement of [125I]RANTES from human CCR5 receptor co-transfected with Galphai6 in CHO cells. Type of data set: cell-based.
Data set [4] can be described thus: Oral bioavailability in rat at 10 mg/kg. Type of data set: ADME, organism-based. As to conditions: in vivo.
The species entered for data set [5] is Homo sapiens. Kind of data set: Hepatic blood flow in human. In kind it is ADME, organism-based, Liver.
Data set [6] relates to Liver microsomes. Kind of data set: (§2) Intrinsic clearance in rat liver microsomes assessed per mg of protein. In kind it is ADME, Microsome. As to conditions: microsomes. For orientation: Liver microsomes are vesicles of endoplasmic reticulum, rich in cytochrome P450 enzymes.
The nature of data set [7]: as §1. In kind it is ADME, Microsome. As to conditions: liver microsomes.
Data set [8] can be described thus: as §2. Type of data set: ADME, Microsome. As to conditions: liver microsomes.
Data set [9] in a line: Efflux ratio of permeability from basolateral to apical to apical to basolateral side in human 21 days cultured Caco-2 cells. Type of data set: ADME, cell-based. Background: Caco-2 monolayers are a common model of the intestinal barrier.
The nature of data set [10]: Permeability from apical to basolateral side of the human 21 days cultured Caco-2 cells. Type of data set: ADME, cell-based. Particulars: read-out: permeability.

Each structure is given as a SMILES string.

Chain of C-C chemokine receptor type 5 (P51681 whole entry): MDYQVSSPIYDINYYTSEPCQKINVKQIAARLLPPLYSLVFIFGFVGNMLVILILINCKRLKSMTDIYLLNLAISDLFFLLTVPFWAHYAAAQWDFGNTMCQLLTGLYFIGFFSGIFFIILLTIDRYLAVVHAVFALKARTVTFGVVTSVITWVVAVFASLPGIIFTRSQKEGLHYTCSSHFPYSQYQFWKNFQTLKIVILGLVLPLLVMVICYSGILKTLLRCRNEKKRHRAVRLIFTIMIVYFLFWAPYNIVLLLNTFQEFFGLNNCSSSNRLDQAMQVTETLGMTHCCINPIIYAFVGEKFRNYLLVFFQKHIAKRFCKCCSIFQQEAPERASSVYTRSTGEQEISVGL

For `CCCCC1CN(CC2CCCCC2)C(=O)OC12CCN(C1CCN(C(=O)c3c(C)ncnc3C)CC1)CC2` (centres undefined), the IC50 (as a rule, the midpoint of a concentration-inhibition curve) was determined as 31 nM in [1] and 68 nM in data set [3]. For the same compound, the clearance was found to be 119 µL/min/mg in data set [2] and 80 µL/min/mg in data set [6]. In addition, in data set [4], the bioavailability (usually dose-corrected exposure relative to a reference, in per cent) is 43%. In data set [5], the LBF is 82%.
With `CCCCC1N(CC2CCCCC2)C(=O)OC12CCN(C1CCN(C(=O)c3c(C)cccc3C)CC1)CC2` (centres undefined), the IC50 in data set [1] amounted to 125 nM; in data set [3], 51 nM. For the same compound, the microsomal CLint (commonly a measure of how fast metabolising enzymes remove a compound, apart from limits set by blood flow) is 675 µL/min/mg in data set [7] and 2000 µL/min/mg in data set [8].
On to `CCCCC1N(CC2CCOCC2)C(=O)OC12CCN(C1(C)CCN(C(=O)c3c(C)ncnc3C)CC1)CC2` (centres undefined), for which the IC50 in [1] came out at 375 nM; in data set [3] it was 58 nM. In [7], the microsomal CLint worked out at 27 µL/min/mg. In data set [9], the efflux ratio (in general, a quotient of directional permeabilities that is used to spot active efflux) came out at 31. Further, the Papp A→B in data set [10] came out at 0.6 ×10⁻⁶ cm/s.
`CCCCC1N(CC2CCCCC2)C(=O)OC12CCN(C1(C)CCN(C(=O)c3c(C)cccc3C)CC1)CC2` (centres undefined): the IC50 in data set [1] was < 1.2 nM; in data set [3] it was 10 nM. The results for the microsomal CLint in [7] and in data set [8] were 526 µL/min/mg and 523 µL/min/mg, respectively. Also, the efflux ratio in data set [9] amounted to 0.4. Besides, the Papp A→B in [10] turned out to be 14 ×10⁻⁶ cm/s.
Consider `CCCC[C@H]1CN(CC2CCOCC2)C(=O)OC12CCN(C1(C)CCN(C(=O)c3c(C)ccnc3C)CC1)CC2`, for which the IC50 in data set [1] was determined as 4 nM; in [3], 61 nM. Further, in [7], the microsomal CLint was found to be 33 µL/min/mg.
